In patent US8084575B2, “Millisecond activation switch for seven-transmembrane proteins” (Julius-Maximilians-Universitat, priority 2002, dated 2011):
“Also recorded” adds a separate entry of the source. Where two headings read alike, the source gives them in different places.

Columns and labels:
α2AAR = biological target: T1, α2AAR (Mus musculus, UniProt Q01338); assay: Competition ligand binding, wild-type α2AAR stably expressed in HEK293 cells; conditions: read-out: noradrenaline affinity Ki
T1 construct: expressed in transfected cells
T1 sequence (Q01338 with tags, fused parts or gaps): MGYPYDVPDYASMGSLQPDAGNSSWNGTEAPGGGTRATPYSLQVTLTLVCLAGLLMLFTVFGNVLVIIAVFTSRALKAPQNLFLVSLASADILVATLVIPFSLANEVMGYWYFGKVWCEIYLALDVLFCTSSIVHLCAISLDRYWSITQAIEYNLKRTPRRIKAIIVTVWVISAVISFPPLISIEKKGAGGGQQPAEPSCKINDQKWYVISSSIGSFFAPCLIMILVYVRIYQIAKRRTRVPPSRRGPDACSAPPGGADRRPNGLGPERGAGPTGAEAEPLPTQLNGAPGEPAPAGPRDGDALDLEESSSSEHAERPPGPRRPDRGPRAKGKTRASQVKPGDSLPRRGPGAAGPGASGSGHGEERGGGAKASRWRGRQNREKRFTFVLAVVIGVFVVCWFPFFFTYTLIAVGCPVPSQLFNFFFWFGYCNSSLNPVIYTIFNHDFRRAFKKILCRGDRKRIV
Experimental: (§1) Pharmacology. Ligand binding, receptor number determination, cAMP assays, measurement of α2A-adrenergic receptor-activated GIRK currents and reconstitution of receptor-Go coupling were measured as previously described (Vilardaga, (2001) loc. cit.; Bünemann, J. Bio. Chem. 276 (2001), 47512-47517; Vilardaga, J. Biol. Chem. 277 (2002), 8121-8129; Richardson, J. Biol. Chem. 274 (1999), 13525-13533). Saturation and competition binding studies were analysed with the program Prism to calculate KD- and Ki-values.

α2AAR-cam [1] = biological target: T2, α2AAR-cam (Mus musculus, UniProt Q01338); assay: Competition ligand binding, α2AAR-cam stably expressed in HEK293 cells; conditions: read-out: noradrenaline affinity Ki
T2 construct: expressed in transfected cells; GIRK1 and GIRK4 co-transfected in A8)
Experimental: as §1

α2AAR-cam [2] = biological target: T2, α2AAR-cam; assay type: cell-based
A2A receptors = assay: 3H-NECA radioligand binding, adenosine receptor constructs in transiently transfected COS cells; set-up: species or system human
Experimental: FIG. 12: Pharmacological properties of the Adenosine receptor constructs. A-B) Comparison between the binding (A) and signalling properties (B) of several adenosine receptor constructs with their respective wild-type receptor in transiently transfected COS cells. Adenylylcyclases activity was determined in membranes from transiently transfected COS cells as previously published (Jakobs et al., J cyclic Nucleotide Res 2 (1976) 381-392, Klotz et al., Naunyn-Schmiedeberg's Arch Pharmacol 357 (1998) 1-9). […] Data are the mean±sd of at least 3 separate experiments.

α2AAR-cam [3] = biological target: T2, α2AAR-cam; assay: FRET in neuronal PC-12 cells stably expressing α2AAR-cam, agonist versus inverse agonists; assay type: cell-based; conditions: 100 μM
Experimental: As documented in the appended examples, an illustrative recombinant α2A-adrenergic receptor (α2AAR-cam) was employed, whereby said α2A-adrenergic receptor (α2AAR-cam) comprises the two detectable labels YFP and CFP on the first intracellular loop and the third intracellular loop.
The α2AAR-cam receptors were stably expressed in the neuronal cell line PC-12. […] The signals were recorded before and after exposure to agonist (NA: noradrenaline, 100 μM) and two different inverse agonists (Yoh: yohimbine and Rau:rauwolscine, 100 μM).

α2AAR-cam [4] = biological target: T2, α2AAR-cam; assay: [3H]UK14304 binding to membranes containing α2AAR-cam with exogenous Go protein; conditions: for Kd: read-out: Kd of agonist binding
Experimental: Pharmacology. […] Saturation and competition binding studies were analysed with the program Prism to calculate KD- and Ki-values.
Third, binding of G-proteins to receptors is known to enhance formation of the active, agonist-bound state.

PTHR-cam = biological target: T3, PTHR-cam (Homo sapiens, UniProt Q03431, INS395[…]); assay: FRET (ratio F*535/F*480) in single HEK293 cells expressing PTHR-cam; assay type: cell-based; conditions: intact HEK293 cells; PTH 1 μM, PTH(7-34) 3 μM
T3 construct: expressed in transfected cells

[5] = test system: PTHR-CFP3-loop and PTHR-YFPC-term; conditions: absence or presence of PTH 1 μM
A2A-CFP14/10-YFPC33 = assay: Intramolecular FRET (nFRET) in HEK293 cells transfected with A2A-CFP14/10-YFPC33; assay type: cell-based, human
Experimental: 12 h post transfection cells were replated on glass coverslips coated with poly-L-lysine and cultured for another 12-36 h.
Cells were continuously superfused with control solution (in mM: 140 NaCl; 5.4 KCl; 2 CaCl2; 1 mM MgCl2; 10 mM Glucose and 10 HEPES/NaOH pH 7.3) using a fast solenoid valve operated superfusion system ALA-VM8 (ALA Scientific Instruments).

α2AAR-cam [6] = biological target: T2, α2AAR-cam; assay: FRET in membranes containing α2AAR-cam in the presence of Go proteins; assay type: biochemical
Experimental: Membrane preparation. Membrane fractions were obtained after two centrifugations at 4° C., first at 800×g for 10 min and the second at 100,000×g for 30 min. Membranes were treated with 6 M urea in 20 mM Hepes, pH 7.4, for 30 min on ice followed by centrifugation at 100,000×g for 15 min. After two washing steps at 4° C. in buffer B the membranes were resuspended in a buffer A (without BSA) and immediately used in the experiments. 20 μl aliquots of membranes were subjected to fluorescence microscopy similar to intact cells using a 20× objective.

α2AAR-cam [7] = biological target: T2, α2AAR-cam; assay: α2A-adrenergic receptor-activated whole cell GIRK currents in HEK293 cells; assay type: cell-based
Experimental: as §1
Electrophysiology. Whole cell GIRK currents were measured in HEK293 cells stably expressing 6 pmol/mg membrane protein α2AR-cam 20-28 h after transient transfection with GIRK1 and GIRK4 as described previously (Bünemann, (2001), loc. cit.). Membrane currents were recorded using an EPC 9 amplifier and Pulse software (HEKA Instruments) for voltage control, data acquisition and data evaluation. Experimental conditions such as patch pipettes, internal and external solutions, voltage-clamp protocol as well as the superfusion system were the same as described previously (Bünemann, (2001), loc. cit.).

## NC[C@H](O)c1ccc(O)c(O)c1 [noradrenaline]
α2AAR
  Ki: 5000 ± 800 nM
α2AAR-cam [1]
  Ki: 16700 ± 1400 nM
α2AAR-cam [2]
  change of FRET signal, given alone: decline of the FRET signal; also recorded: rapid decrease of the FRET signal
  maximal apparent rate constant kobs: ~26 s⁻¹
  time constant required for receptor activation: less than 40 ms
  times faster than activation of chemically labelled purified β2-adrenergic receptors: more than 5000 times

## CCNC(=O)[C@H]1O[C@@H](n2cnc3c(N)ncnc32)[C@H](O)[C@@H]1O [^3H-NECA]
A2A receptors
  radioligand binding compared with wild-type A2A receptor: no significant difference

## COC(=O)[C@@H]1[C@H]2C[C@H]3c4[nH]c5ccccc5c4CCN3C[C@@H]2CC[C@@H]1O [yohimbine]
α2AAR-cam [3]
  conformational change of the receptor relative to agonist noradrenaline: opposite conformational changes

## Brc1c(NC2=NCCN2)ccc2nccnc12 [UK14304]
α2AAR-cam [4]; 10 μM GTPγS
  decrease of binding affinity in presence of GTPγS: ≈ 3 fold
α2AAR-cam [4]; exogenous Go (receptor:Go 1:100), without GTPγS
  Kd: 3.4 ± 0.8 nM
α2AAR-cam [4]; exogenous Go, in presence of 10 μM GTPγS
  Kd: 9.6 ± 1.1 nM

## PTH7-34: truncated variant of PTH, a low affinity antagonist (LMHNLGKHLNSMERVEWLRKKLQDVHNF; Parathyroid hormone; UniProt P01270 38-65, looked up, fragment)
PTHR-cam
  change in FRET signal: failed to induce a change in FRET

## COC(=O)[C@H]1[C@H]2C[C@H]3c4[nH]c5ccccc5c4CCN3C[C@H]2CC[C@@H]1O [rauwolscine]
α2AAR-cam [3]
  conformational change of the receptor relative to agonist noradrenaline: opposite conformational changes

## PTH: parathyroid hormone, agonist of the PTH receptor
[5]
  intermolecular FRET: no FRET

## Nc1ncnc2c1ncn2[C@@H]1O[C@H](CO)[C@@H](O)[C@H]1O [adenosine]
A2A-CFP14/10-YFPC33
  time for nFRET to return to initial value after withdrawal of agonist: 5 to 10 s

## Nc1nc2c(ncn2[C@@H]2O[C@H](COP(=O)(O)OP(=O)(O)OP(O)(O)=S)[C@@H](O)[C@H]2O)c(=O)[nH]1 [GTPγS]
α2AAR-cam [4]; GTPγS 10 μM, Go present
  reduction of the binding of 5 nM [3H]UK14304: more than 50%
α2AAR-cam [6]; GTPγS
  effect on FRET signal of saturating concentrations of UK14304: did not affect
α2AAR-cam [6]; GTPγS 10 μM, Go present
  reduction of FRET signals caused by 5 nM UK14304: more than 50%

## Clc1cccc(Cl)c1N=C1NCCN1 [clonidine]
α2AAR-cam [2]
  FRET signal compared to the full agonist noradrenaline: three-fold smaller
  effect of simultaneous addition on noradrenaline response: restored this response back to the partial response

## pertussis toxin
α2AAR-cam [2]
  effect of inactivating Gi and Go on noradrenaline-induced FRET signal: did not affect

## α2AAR-cam: mouse α2A-adrenergic receptor with YFP in third intracellular loop and CFP on C-terminus, SEQ ID NOS: 11 and 12
α2AAR-cam [7]
  speed of GIRK current activation versus wild type α2AAR: not faster than the wild type

## Cc1ccc(N(CC2=NCCN2)c2cccc(O)c2)cc1 [phentolamine]
α2AAR-cam [2]
  change of FRET signal, given alone: did not alter the FRET signal
  effect on the noradrenaline-induced FRET signal: rapidly reverted the noradrenaline-induced signal
